Like-named read-outs stand apart in the source and are kept apart here.
How the values were obtained:
[1] = test system: ZIKV-induced cell death in SNB-19 cells; assay: ATP cell viability assay for ZIKV-induced cell death, SNB-19 cells; type: cell-based, human
Summary of the method: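 The extent of cell death caused by ZIKV infection was determined from ATP levels. Cells grew in assay plates for 16 hours at 37° C. with 5% CO2, were then given ZIKV solution and kept under the same conditions for 72 hours. ATPlite reagent was applied for 15 minutes and luminescence was read on a ViewLux plate reader. Cell-free wells defined 100% killing and uninfected cell wells defined full viability.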

[2] = test system: ZIKV-induced caspase 3/7 activity in SNB-19 cells; assay: Caspase 3/7 activity assay, ZIKV-infected SNB-19 cells; type: cell-based
Summary of the method: (§1)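 Human NPCs, SNB-19 cells or astrocytes seeded 16 h, compound added 30 min before ZIKV, then 6 h infection at 37 °C. Caspase-Glo 3/7 luminescence after 30 min at room temperature, normalized to uninfected cells (0%) and ZIKV-infected cells (100%).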

[3] = test system: ZIKV-induced cell death in human astrocytes; assay: ATP cell viability assay for ZIKV-induced cell death, human astrocytes; type: cell-based
[4] = test system: ZIKV-induced caspase 3/7 activity in human astrocytes; assay: Caspase 3/7 activity assay, ZIKV-infected human astrocytes; type: cell-based; details: for IC50: read-out: Caspase 3 (IC50, uM) Astrocyte; for Emax: read-out: Caspase 3 (efficacy, %) Astrocyte
Summary of the method: as §1

[5] = Homo sapiens, ZIKV-infected SNB-19 cells, read-out: Caspase 3 (IC50, uM) SNB-19
[6] = Homo sapiens, ZIKV-infected SNB-19 cells, read-out: Caspase 3 (efficacy, %) SNB-19
[7] = Astrocyte, ZIKV-infected human astrocytes
[8] = ZIKV-infected SNB-19 cells, read-out: Caspase 3 (IC50, uM) SNB-19
[9] = Homo sapiens, ZIKV-infected SNB-19 cells, read-out: Cell viability (IC50, uM) SNB-19
[10] = Astrocyte, ZIKV-infected human astrocytes, read-out: Cell viability (IC50, uM) Astrocyte
[11] = Homo sapiens, SNB-19, following ZIKV infection, read-out: IC50 (μM) for improving cell viability, SNB-19
[12] = Homo sapiens, Astrocyte, following ZIKV infection, read-out: IC50 (μM) for improving cell viability, Astrocytes
[13] = ZIKV-infected SNB-19 cells, read-out: Cell viability (IC50, uM) SNB-19

Row | Compound | IC50 [2, 5] | IC50 [4, 7] | Cell viability (efficacy, %) SNB-19 ([1]; ZIKV-infected SNB-19 cells) | Emax [2, 6] | Cell viability (efficacy, %) Astrocyte ([3]; ZIKV-infected human astrocytes) | Emax [4, 7] | further results
1 | Cc1ccc(O)c(-n2nc3ccccc3n2)c1 [2-(2H-Benzotriazol-2-yl)-4-methylphenol] | 8.69 µM | 9.2 µM | 0.0% | 80.1% | 0.0% | 68.5% | 
2 | Nc1nc2ccc([N+](=O)[O-])cc2s1 [2-Amino-6-nitrobenzothiazole] | 53.1 µM | 39.8 µM | 0.0% | 46.1% | 0.0% | 54.1% | 
3 | O=C1NC(=O)/C(=C/c2ccc(-c3ccc(F)cc3O)o2)S1 [AS-252424] |  |  | 0.0% |  | 0.0% |  | Caspase 3 (efficacy, %) SNB-19 ([2]; ZIKV-infected SNB-19 cells): 38.0%; IC50 [2, 8]: 2.18 µM; Caspase 3 (efficacy, %) Astrocyte ([4]; ZIKV-infected human astrocytes): 37.5%; IC50 ([4]; ZIKV-infected human astrocytes): 1.73 µM
4 | O=C1c2ccccc2C(=O)c2c1ccc(O)c2O [Alizarin] | 21.8 µM | 30.8 µM | 0.0% | 40.9% | 0.0% | 47.9% | 
5 | N#CC1(c2ccc(NC(=O)c3cccnc3NCc3ccncc3)cc2)CCCC1 [Apatinib] | 24.5 µM | 19.5 µM | 0.0% | 61.2% | 0.0% | 57.9% | 
6 | O=C1NC(=O)C(=Cc2ccc(-c3ccc(F)cc3)o2)S1 [CAY10505] |  |  | 0.0% |  | 0.0% |  | Caspase 3 (efficacy, %) SNB-19 ([2]; ZIKV-infected SNB-19 cells): 91.2%; IC50 [2, 8]: 17.3 µM; Caspase 3 (efficacy, %) Astrocyte ([4]; ZIKV-infected human astrocytes): 80.1%; IC50 ([4]; ZIKV-infected human astrocytes): 16.4 µM
7 | C[C@H](NC(=O)C(=O)Nc1ccccc1C(C)(C)C)C(=O)N[C@@H](CC(=O)O)C(=O)COc1c(F)c(F)cc(F)c1F [Emricasan] | 0.62 µM | 0.46 µM | 194% | 97.6% | 98.7% | 77.1% | IC50 [1, 11]: 0.87 µM; IC50 ([1]; Homo sapiens, SNB-19 cells, three ZIKV strains MR766, FSS13025, PRVABC59, read-out: IC50 in the cell viability assay): 0.13 to 0.9 µM; IC50 [1, 9]: 0.87 µM; IC50 ([2]; Homo sapiens, SNB-19 cells, three ZIKV strains MR766, FSS13025, PRVABC59, read-out: IC50 in the caspase activity assay): 0.13 to 0.9 µM; IC50 [3, 10]: 4.11 µM; IC50 [3, 12]: 4.11 µM
8 | O=C(O)c1ccccc1NCCc1ccccc1 [Enfenamic acid] |  | 25.9 µM | 0.0% | 49.5% | 0.0% | 58% | 
9 | O=S(=O)(O)c1ccc2[nH]c(-c3ccccc3)nc2c1 [Ensulizole] |  |  | 0.0% |  | 0.0% |  | IC50 ([2]; Homo sapiens, SNB-19, read-out: Caspase 3 (IC50, uM) SNB-19): 1.84 µM; Emax ([2]; Homo sapiens, SNB-19, read-out: Caspase 3 (efficacy, %) SNB-19): 73.3%; IC50 ([4]; Homo sapiens, Astrocyte): 1.95 µM; Emax ([4]; Homo sapiens, Astrocyte): 82.7%
10 | CN1CC(=O)NC1=NC(=O)Nc1cccc(Cl)c1 [Fenobam] |  |  | 60.5% |  | 0.0% |  | IC50 [1, 13]: 1.73 µM; Caspase 3 (efficacy, %) SNB-19 ([2]; ZIKV-infected SNB-19 cells): 110%; IC50 [2, 8]: 7.31 µM; Caspase 3 (efficacy, %) Astrocyte ([4]; ZIKV-infected human astrocytes): 97.2%; IC50 ([4]; ZIKV-infected human astrocytes): 9.2 µM
11 | O=C(O)c1ccccc1Nc1cccc(C(F)(F)F)c1 [Flufenamic acid] | 10.9 µM | 8.69 µM | 0.0% | 61.5% | 0.0% | 71.9% | 
12 | C/C1=C2/[N-][C@H]([C@H](CC(N)=O)[C@@]2(C)CCC(=O)NC[C@@H](C)OP(=O)([O-])O[C@H]2[C@@H](O)[C@@H](n3cnc4cc(C)c(C)cc43)O[C@@H]2CO)[C@]2(C)N=C(/C(C)=C3N=C(/C=C4N=C1[C@@H](CCC(N)=O)C\4(C)C)[C@@H](CCC(N)=O)[C@]\3(C)CC(N)=O)[C@@H](CCC(N)=O)[C@]2(C)CC(N)=O.[Co+3].[OH-] [Hydroxocobalamin] |  |  | 0.0% |  | 0.0% |  | Caspase 3 (efficacy, %) SNB-19 ([2]; ZIKV-infected SNB-19 cells): 85.7%; IC50 [2, 8]: 1.46 µM; Caspase 3 (efficacy, %) Astrocyte ([4]; ZIKV-infected human astrocytes): 83.4%; IC50 ([4]; ZIKV-infected human astrocytes): 0.97 µM
13 | O=C(Nc1ccc([N+](=O)[O-])cc1Cl)c1cc(Cl)ccc1O [Niclosamide] | 2.06 µM | 1.84 µM | 97.3% | 93.9% | 51.2% | 96.8% | IC50 [1, 11]: 1.95 µM; IC50 [1, 9]: 1.95 µM; IC50 [3, 10]: 1.73 µM; IC50 [3, 12]: 1.73 µM
14 | CC(=O)Nc1ccc([C@H](C)C(=O)Nc2ncc(C(C)C)s2)cc1 [PHA-690509] |  |  | 165% |  | 81.9% |  | IC50 [1, 13]: 10.9 µM; IC50 ([1]; following ZIKV infection, read-out: IC50 (μM) for improving cell viability, SNB-19): 10.1 µM; Caspase 3 (efficacy, %) SNB-19 ([2]; ZIKV-infected SNB-19 cells): 74.6%; IC50 [2, 8]: 9.2 µM; IC50 ([3]; ZIKV-infected human astrocytes, read-out: Cell viability (IC50, uM) Astrocyte): 7.74 µM; IC50 ([3]; following ZIKV infection, read-out: IC50 (μM) for improving cell viability, Astrocytes): 7.47 µM; Caspase 3 (efficacy, %) Astrocyte ([4]; ZIKV-infected human astrocytes): 71.6%; IC50 ([4]; ZIKV-infected human astrocytes): 13 µM

More lines, main results first:

Row | IC50 [2, 5] | IC50 [4, 7] | Compound | Cell viability (efficacy, %) SNB-19 ([1]; ZIKV-infected SNB-19 cells) | Emax [2, 6] | Cell viability (efficacy, %) Astrocyte ([3]; ZIKV-infected human astrocytes) | Emax [4, 7] | further results
15 | 27.5 µM |  | CCOCCOC(=O)C=Cc1ccc(OC)cc1 [2-Ethoxylethyl-p-methoxycinnamate] | 0.0% | 53% | 0.0% | 0% | 
16 | 13 µM | 9.75 µM | O=C(O)c1cc([N+](=O)[O-])ccc1NCCCc1ccccc1 [5-Nitro-2-(3-phenylpropylamino)benzoic acid] | 0.0% | 82.9% | 0.0% | 82.1% | 
17 | 15.5 µM | 13.8 µM | COc1ccc(-c2cc(=S)ss2)cc1 [Anethole trithione] | 0.0% | 85.5% | 0.0% | 62.7% | 
18 | 6.9 µM | 5.81 µM | O=C(Nc1ccc(C(=O)O)c(O)c1)c1ccccc1 [Benzoylpas] | 0.0% | 92.8% | 0.0% | 94.9% | 
19 | 19.5 µM | 17.3 µM | O=C(OCc1ccccc1)c1ccc(O)cc1 [Benzylparaben] | 0.0% | 91.8% | 0.0% | 62.8% | 
20 | 12.3 µM | 15.5 µM | CN(C)CCCSc1ccccc1NC(=O)/C=C/c1ccccc1 [Cinanserin] | 56.9% | 92% | 0.0% | 80.2% | IC50 [1, 9]: 19.5 µM
21 | 17.3 µM | 15.5 µM | CC(=O)Oc1cccc2c1C(=O)c1c(OC(C)=O)cc(C(=O)O)cc1C2=O [Diacerein] | 0.0% | 63.2% | 35.2% | 72.9% | IC50 [3, 10]: 30.8 µM
22 | 4.73 µM | 6.68 µM | O=C(Oc1ccccc1)c1cccc(C(=O)Oc2ccccc2)c1 [Diphenyl isophthalate] | 0.0% | 92.8% | 0.0% | 104% | 
23 | 4.35 µM | 3.27 µM | Cc1cc(O)c2c(c1)C(=O)c1cc(O)cc(O)c1C2=O [Emodin] | 0.0% | 83.3% | 0.0% | 86.4% | 
24 | 17.3 µM | 10.9 µM | c1ccc(CCNc2nc(-c3ccccc3)cs2)cc1 [Fanetizole] | 0.0% | 78.1% | 0.0% | 72.9% | 
25 | 24.5 µM | 21.8 µM | O=C(O)CCC(=O)c1ccc(-c2ccccc2)cc1 [Fenbufen] | 0.0% | 76.3% | 0.0% | 81.5% | 
26 | 7.74 µM | 6.52 µM | CCC(C(=O)O)c1ccc(N2Cc3ccccc3C2=O)cc1 (stereo not drawn) [Indobufen] | 0.0% | 85.8% | 0.0% | 86.3% | 
27 | 17.3 µM | 21.8 µM | O=C(c1ccccc1)c1ccc2n1CCC2C(=O)O (stereo not drawn) [Ketorolac tromethamine] | 0.0% | 84.5% | 0.0% | 61.7% | 
28 | 5.18 µM | 5.81 µM | Cc1cccc(C#Cc2ccccc2)n1 [MPEP, 2-Methyl-6-(phenylethynyl)pyridine] | 0.0% | 98.6% | 0.0% | 118% | 
